Laboratory results published in PMC5650372 (Oncotarget, 2017).
Read-outs that look alike come from different tables or passages of the source.

Assays:
[1] = tested on: NHEJ activity; experiment: Reconstituted cell-free NHEJ assay (MCF7 nuclear extract); format: biochemical, human
Description: MCF7 human breast cancer cells (5-10 x 10^7 each) were incubated in 5 pellet volumes of cold hypotonic buffer (10 mM Hepes-KOH, pH 7.5, 1.5 mM MgCl2, 5 mM KCl, and 0.5 mM DTT) for 20 minutes and were homogenized in a tight-fitting glass dounce homogenizer for 10-20 strokes. The nuclei were then collected by low-speed centrifugation and nuclear proteins were extracted by high-salt buffer (50 mM Tris-HCl, pH 7.5, 1 M KCl, 2 mM EDTA, 1 mM DTT, and protease inhibitors). The extracted nuclear proteins were dialyzed against 1 L of dialysis buffer (20 mM Tris-HCl, pH 8.0, 20% glycerol, 0.1 M KOAc, 0.5 mM EDTA, and 1 mM DTT) for 1 hour and were used for the in vitro NHEJ assay.
(§1) Nuclear protein (10-20 μg) prepared above was pre-treated with compounds as indicated on ice for 15 minutes. Twenty-five nanograms of EcoRI-digested pBluescript DNA (Stratagene, La Jolla, CA) were then added and the mixture was adjusted to 20 μL final volume in NHEJ buffer (50 mM Hepes-KOH pH 8.0, 40 mM KOAc, 1 mM Mg(OAc)2, 1 mM ATP, 0.1 mg/mL BSA, and 1 mM DTT). After incubation at 25°C for 60 minutes, the reaction was terminated by incubation with 1 μg/mL RNase A for 10 minutes followed by treatment with 2 mg/mL Protease K in 0.5% SDS at 55°C for 30 minutes. The reactions were run onto 0.8% agarose and the gel was stained with Sybr Green (S756, Invitrogen, Carlsbad, CA). For Western blots, an aliquot of the same reaction mixture described above was subjected to SDS-PAGE, transferred to the PVDF membrane, and immunoblotted with indicated antibodies.

[2] = tested on: pDNA-PK S2056; experiment: Western blot of cell-free NHEJ reaction (MCF7 nuclear extract); format: biochemical, human
Description: as §1

[3] = molecular target: DNA-PK (Homo sapiens, UniProt P78527); experiment: DNA-PK enzyme assay; format: biochemical; conditions: average ± SEM; CC214-1 n=2
Description: (§2) mTOR, DNA-PK and PI3K-alpha assays were to determine percent inhibition. An IC50 value was then
(§3) performed as reported previously. estimated. […]

[4] = molecular target: mTOR kinase (Homo sapiens, UniProt P42345); experiment: mTOR kinase enzyme assay; format: biochemical; conditions: average ± SEM
Description: as §2, §3

[5] = tested on: NCI-H1975 and SW1573 cells; experiment: Clonogenic assay alone or with etoposide; format: cell-based, human; conditions: for combination with 6.8 μM etoposide on colony formation: 10 μM compound, 4 hours; for effect on cell survival, single agent: 4 hours treatment alone
Description: Media were changed every three days. Plates were incubated for a total of about two weeks then fixed and stained using the DIFF QUIK staining kit. Colonies were imaged and counted.

[6] = molecular target: T1, ATR (Homo sapiens, UniProt Q13535); experiment: ATR 33P radioactive kinase assay (immunoprecipitated FLAG-ATR); format: biochemical
T1 construct: made in house; host or cells: HEK293 (293FT cells, Invitrogen R700-07), transient transfection, immunoprecipitation on Protein G Sepharose
T1 sequence (Q13535 whole entry): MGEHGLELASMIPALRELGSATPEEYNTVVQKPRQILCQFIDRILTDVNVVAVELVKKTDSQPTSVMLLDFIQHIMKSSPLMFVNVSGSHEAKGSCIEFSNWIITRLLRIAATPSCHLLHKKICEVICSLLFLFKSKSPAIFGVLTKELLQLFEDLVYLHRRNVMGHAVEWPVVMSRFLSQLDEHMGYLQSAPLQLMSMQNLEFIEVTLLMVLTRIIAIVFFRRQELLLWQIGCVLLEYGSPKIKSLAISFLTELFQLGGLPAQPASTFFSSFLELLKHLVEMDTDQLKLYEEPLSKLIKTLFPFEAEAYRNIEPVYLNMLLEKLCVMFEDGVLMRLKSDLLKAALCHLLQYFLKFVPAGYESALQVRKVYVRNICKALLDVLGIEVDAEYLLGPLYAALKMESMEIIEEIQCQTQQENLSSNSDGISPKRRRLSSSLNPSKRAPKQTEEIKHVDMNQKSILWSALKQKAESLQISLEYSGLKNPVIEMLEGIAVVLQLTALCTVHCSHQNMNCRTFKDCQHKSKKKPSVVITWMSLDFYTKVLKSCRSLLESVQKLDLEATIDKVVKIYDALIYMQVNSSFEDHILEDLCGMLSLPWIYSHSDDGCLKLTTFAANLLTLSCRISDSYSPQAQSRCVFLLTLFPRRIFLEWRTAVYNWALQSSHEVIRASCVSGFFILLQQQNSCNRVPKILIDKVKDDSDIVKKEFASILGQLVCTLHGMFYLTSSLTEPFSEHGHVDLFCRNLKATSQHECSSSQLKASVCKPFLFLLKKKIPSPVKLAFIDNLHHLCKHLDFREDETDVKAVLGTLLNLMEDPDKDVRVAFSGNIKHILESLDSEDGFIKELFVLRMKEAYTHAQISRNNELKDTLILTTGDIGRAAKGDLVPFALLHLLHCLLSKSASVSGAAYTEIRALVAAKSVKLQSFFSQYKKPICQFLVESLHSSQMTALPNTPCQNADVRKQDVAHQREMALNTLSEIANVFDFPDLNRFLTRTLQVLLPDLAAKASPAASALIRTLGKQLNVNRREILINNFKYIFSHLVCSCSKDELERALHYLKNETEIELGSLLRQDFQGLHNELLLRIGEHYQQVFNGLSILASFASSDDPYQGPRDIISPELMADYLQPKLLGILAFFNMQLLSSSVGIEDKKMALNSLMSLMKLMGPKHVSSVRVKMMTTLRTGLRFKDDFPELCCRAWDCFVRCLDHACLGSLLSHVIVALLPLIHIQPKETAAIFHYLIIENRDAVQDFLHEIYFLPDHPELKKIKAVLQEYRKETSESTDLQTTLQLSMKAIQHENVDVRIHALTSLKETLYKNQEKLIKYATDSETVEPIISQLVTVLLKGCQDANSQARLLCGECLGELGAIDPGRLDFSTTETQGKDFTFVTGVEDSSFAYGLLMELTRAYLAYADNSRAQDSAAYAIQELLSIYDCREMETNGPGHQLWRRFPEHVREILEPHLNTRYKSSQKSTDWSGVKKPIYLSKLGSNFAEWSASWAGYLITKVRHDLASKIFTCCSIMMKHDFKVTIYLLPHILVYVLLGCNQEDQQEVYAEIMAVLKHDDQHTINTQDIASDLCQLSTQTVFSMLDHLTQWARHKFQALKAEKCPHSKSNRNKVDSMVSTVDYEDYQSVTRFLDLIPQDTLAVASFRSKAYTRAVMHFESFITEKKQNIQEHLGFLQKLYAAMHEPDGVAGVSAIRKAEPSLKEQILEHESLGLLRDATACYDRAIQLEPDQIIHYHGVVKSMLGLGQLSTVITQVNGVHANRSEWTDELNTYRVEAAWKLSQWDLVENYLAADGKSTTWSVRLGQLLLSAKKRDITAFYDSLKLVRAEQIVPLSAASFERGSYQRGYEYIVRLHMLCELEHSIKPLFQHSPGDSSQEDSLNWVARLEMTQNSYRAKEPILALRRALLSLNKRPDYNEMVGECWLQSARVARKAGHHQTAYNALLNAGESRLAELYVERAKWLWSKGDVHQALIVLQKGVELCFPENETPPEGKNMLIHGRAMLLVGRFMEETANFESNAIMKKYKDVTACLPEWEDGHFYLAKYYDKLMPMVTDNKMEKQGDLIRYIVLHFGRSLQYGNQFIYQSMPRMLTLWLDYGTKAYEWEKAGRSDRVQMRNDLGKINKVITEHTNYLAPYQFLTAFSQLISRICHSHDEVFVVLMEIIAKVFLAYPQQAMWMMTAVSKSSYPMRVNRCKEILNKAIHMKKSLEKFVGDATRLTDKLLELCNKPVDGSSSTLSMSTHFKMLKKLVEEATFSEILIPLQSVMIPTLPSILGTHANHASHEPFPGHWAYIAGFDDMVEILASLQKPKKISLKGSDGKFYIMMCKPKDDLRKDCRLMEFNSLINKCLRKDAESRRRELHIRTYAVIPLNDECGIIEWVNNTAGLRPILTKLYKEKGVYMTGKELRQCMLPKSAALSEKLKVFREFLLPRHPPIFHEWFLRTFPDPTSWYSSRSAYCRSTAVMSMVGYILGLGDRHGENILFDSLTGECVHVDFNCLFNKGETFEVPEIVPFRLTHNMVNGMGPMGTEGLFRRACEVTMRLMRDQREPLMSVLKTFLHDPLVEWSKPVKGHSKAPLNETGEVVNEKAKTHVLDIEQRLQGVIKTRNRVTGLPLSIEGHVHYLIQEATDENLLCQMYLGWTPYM
Description: deficient cell growth in vitro […]
incorporated in the corresponding no inhibitor control mTOR, DNA-PK and PI3K-alpha assays were to determine percent inhibition. An IC50 value was then performed as reported previously. estimated.
(§4) ATM and ATR assay and IC50 determination Cellular NHEJ assay
(§5) HA-ATM and FLAG-ATR (HA-labeled ATM, and The experimental design is illustrated in FLAG-labeled ATR) were each transiently expressed in Supplementary Figure 4. Cal-51 breast cancer cells HEK293 cells (293FT cells, Invitrogen Cat: R700-07) were separately transfected with pEGFP plasmid (6085-using Lipofectamine as transfection reagent. Cells were 1, Clontech, Mountain View, CA) digested with either harvested 6 days post transfection and spun down to EcoRI (to measure NHEJ) or StuI (to measure transfection separate cells from media. Cells were then lysed using a efficiency) using a Amaxa cell line nuclearfector kit V lysis buffer (50 mM Tris buffer, (Tris(hydroxylmethyl)- (CCA-1003, Lonza). Immediately after the transfection, aminomethane, pH 7.5), 100 mM NaCl, 50 mM βGOP, the cells were treated with DMSO or compounds at 10% Glycerol, 0.5% Tween 20, 1 mM EDTA, 25 mM indicated concentrations for 24 hours and GFP-positive sodium fluoride (NaF), 20 nM microcystine, 2 mM cells were counted under a fluorescent microscope. […]

[7] = tested on: NHEJ in MDA-MB-231 breast cancer cells; experiment: 384-well image-based cellular NHEJ assay; format: cell-based; conditions: Homo sapiens; MDA-MB-231, n=3
Description: as §4
as §5, with “microscope. NHEJ phenylmethylsulfonylfluoride (PMSF) and protease activity was calculated by the number of GFP-positive inhibitor cocktail) followed by sonication 3 times and a cells in cells transfected with pEGFP-EcoRI divided by final spin at 20,000 rpm for 30 minutes to generate a clear that in cells transfected with pEGFP-StuI, multiplied by lysate. To perform the immunoprecipitation, enzymes were 100.” for “microscope.”
(§6) or FLAG tags. Beads plus enzymes were then washed 3 developed. Different cell lines were transfected using times with lysis buffer and spun down at 1000 rpm for the procedure described above and subsequently seeded 1 minute. Beads plus enzymes were resuspended in lysis into 384-well plates at optimized density for individual buffer and kept at 4°C until assay. Assays for ATM and cell lines. Cells were then treated with compounds at ATR were conducted in a 33P radioactive assay format. increasing concentrations. GFP+ cells were imaged Assay buffer contained the following reagents: 1 mg/mL and quantitated using the IncuCyte (Essen Bioscience, GST-p53 (glutathione S-transferase–p53 fusion protein) Ann Arbor, MI). NHEJ activity was then normalized substrate (expressed in-house), 20 μg/mL calf thymus to the DMSO control and fitted to the Sigmoidal Dose-DNA activator (Sigma), 100 μg/mL BSA, 200 μM EGTA Response Model (IDBS XLFit Model 205; London, UK)

[8] = tested on: NHEJ in Cal-51 cells; experiment: 384-well image-based cellular NHEJ assay; format: cell-based; conditions: Homo sapiens; Cal-51, n=3
Description: as §4
as §5, with “microscope. NHEJ phenylmethylsulfonylfluoride (PMSF) and protease activity was calculated by the number of GFP-positive inhibitor cocktail) followed by sonication 3 times and a cells in cells transfected with pEGFP-EcoRI divided by final spin at 20,000 rpm for 30 minutes to generate a clear that in cells transfected with pEGFP-StuI, multiplied by lysate. To perform the immunoprecipitation, enzymes were 100.” for “microscope.”
as §6

[9] = tested on: NHEJ in HCT116 colorectal cancer cells; experiment: 384-well image-based cellular NHEJ assay; format: cell-based; conditions: Homo sapiens, HCT-116; HCT116, n=3
Description: as §4
as §5, with “microscope. NHEJ phenylmethylsulfonylfluoride (PMSF) and protease activity was calculated by the number of GFP-positive inhibitor cocktail) followed by sonication 3 times and a cells in cells transfected with pEGFP-EcoRI divided by final spin at 20,000 rpm for 30 minutes to generate a clear that in cells transfected with pEGFP-StuI, multiplied by lysate. To perform the immunoprecipitation, enzymes were 100.” for “microscope.”
as §6

[10] = tested on: NHEJ in PC3 prostate cancer cells; experiment: 384-well image-based cellular NHEJ assay; format: cell-based; conditions: Homo sapiens; PC3, n=3
Description: as §4
as §5, with “microscope. NHEJ phenylmethylsulfonylfluoride (PMSF) and protease activity was calculated by the number of GFP-positive inhibitor cocktail) followed by sonication 3 times and a cells in cells transfected with pEGFP-EcoRI divided by final spin at 20,000 rpm for 30 minutes to generate a clear that in cells transfected with pEGFP-StuI, multiplied by lysate. To perform the immunoprecipitation, enzymes were 100.” for “microscope.”
as §6

[11] = tested on: pChk2 T68; experiment: Western blot of cell-free NHEJ reaction (MCF7 nuclear extract); format: biochemical, human; conditions: MCF7 nuclear extract, 0.05, 0.5 or 5 μM
Description: as §1

[12] = tested on: pATM S1981; experiment: as above; format: biochemical, human; conditions: MCF7 nuclear extract with linear dsDNA
Description: as §1

[13] = tested on: Rad51-foci in LoVo cells; experiment: Rad51-foci immunofluorescence (homologous recombination); format: cell-based, human
[14] = molecular target: T2, DNA-PKcs, XRCC4 and DNA ligase IV on DNA (Homo sapiens, UniProt P78527); experiment: DNA end binding assay (MCF7 nuclear extract); format: biochemical; conditions: 5 μM, MCF7 nuclear extract, 10, 30, 60 minutes
T2 construct: endogenous in cells; host or cells: MCF7 nuclear extract
Description: One kb of DNA fragment, including an EcoRI sequence in the middle, was amplified by PCR using pEGFP as a template and a pair of biotinylated EGFP primers (5′-biotin-[…]-3′ and 5′-biotin-[…]-3′: Valuegene, San Diego, CA). The amplified DNA fragment was cleaved by EcoRI to produce two 0.5 kb biotinylated DNA fragments, and was purified using the QIAquick PCR purification kit (Qiagen). […] An aliquot of the reaction was removed at each time point to separate the supernatant and the beads. The supernatant was subjected to SDS-PAGE and immunoblotting with indicated antibodies. The beads were washed twice with 250 μL of IP buffer (25 mM Hepes-KOH, pH 7.5, 100 mM NaCl, 20% glycerol, 5 mM EDTA, 1 mM DTT, 0.05% Nonidet P-40, 10 mM NaF, and protease inhibitor mixture) and subjected to SDS-PAGE and immunoblotting with indicated antibodies.

[15] = molecular target: T1, ATR; parameters: method as in earlier work; conditions: Lit. reported value ref 3; cited from earlier work
[16] = molecular target: T3, ATM (Homo sapiens, UniProt Q13315); parameters: method as in earlier work; conditions: Lit. reported value ref 3; cited from earlier work
T3 construct: made in house; host or cells: HEK293 (293FT cells, Invitrogen R700-07), transient transfection, immunoprecipitation on Protein G Sepharose

[17] = concentration series (0.05 to 5 μM)

O=c1[nH]c2ncc(-c3ccc(-c4nc[nH]n4)cc3)nc2n1CCC1CCOCC1 [CC214-1, 6-(4-(1H-1,2,4-triazol-3-yl)phenyl)-1-(2-(tetrahydro-2H-pyran-4-yl)ethyl)-1,3-dihydro-2H-imidazo[4,5-b]pyrazin-2-one]
inhibition of NHEJ activity, cell-free ([1]; 5 μM): Minimal inhibition
inhibition of pDNA-PK S2056, cell-free [2]: to a smaller extent
IC50 [3]: 0.141 µM
IC50 [4]: 0.002 ± 0.0002 µM

CC(C)(O)c1ccc(-c2cnc3c(n2)N(CC2CCOCC2)CC(=O)N3)cn1 [CC214-2, 6-(6-(2-hydroxypropan-2-yl)pyridin-3-yl)-4-((tetrahydro-2H-pyran-4-yl)methyl)-3,4-dihydropyrazino[2,3-b]pyrazin-2(1H)-one]
combination with 6.8 μM etoposide on colony formation [5]: synergy was not observed
effect on cell survival, single agent [5]: minimal effect on cell survival
IC50 [6]: > 3 µM
IC50 [7]: > 10 µM
IC50 [8]: > 10 µM
IC50 [9]: > 10 µM
IC50 [10]: > 10 µM
inhibition of NHEJ activity, cell-free [1, 17]: not changed
inhibition of pDNA-PK S2056, cell-free [2]: did not inhibit
IC50 [3]: > 10 µM

O=c1cc(-c2cccc3c2Sc2ccccc2S3)oc(N2CCOCC2)c1 [KU55933, 2-(4-morpholinyl)-6-(1-thianthrenyl)-4H-pyran-4-one]
inhibition of NHEJ activity, cell-free [1, 17]: did not inhibit
inhibition of pDNA-PK S2056, cell-free [2]: not DNA-PK phosphorylation
inhibition of pChk2 T68, cell-free [11]: concentration-dependent inhibition
inhibition of pATM S1981, cell-free [12]: efficiently inhibited

O=c1cc(N2CCOCC2)oc2c(-c3cccc4c3sc3ccccc34)cccc12 [NU7441, 8-(4-dibenzothienyl)-2-(4-morpholinyl)-4H-1-benzopyran-4-one]
combination with 6.8 μM etoposide on colony formation [5]: synergistic effect
effect on cell survival, single agent [5]: minimal effect on cell survival
Rad51-foci positive nuclei (HR efficiency) ([13]; 5 μM compound with 0.1 μM doxorubicin): 10.3%
DNA-PKcs, XRCC4 and DNA ligase IV bound to DNA over time [14]: retained from 10 minutes through the end of the reaction at 60 minutes
IC50 [7]: 0.63 ± 0.08 µM
IC50 [8]: 2.56 ± 0.84 µM
IC50 [9]: 6.22 ± 6.76 µM
IC50 [10]: 1.03 ± 0.17 µM
inhibition of NHEJ activity, cell-free [1, 17]: Inhibition of NHEJ was also observed
IC50 [15]: > 100 µM
inhibition of pDNA-PK S2056, cell-free [2]: also inhibited
inhibition of pChk2 T68, cell-free [11]: also inhibited
inhibition of pATM S1981, cell-free [12]: reduction
IC50 [16]: > 100 µM
IC50 [4]: 1.64 ± 0.2 µM

COc1cccc2c1C(=O)c1c(O)c3c(c(O)c1C2=O)C[C@@](O)(C(=O)CO)C[C@@H]3O[C@H]1C[C@H](N)[C@H](O)[C@H](C)O1 [doxorubicin]
Rad51-foci positive nuclei (HR efficiency) ([13]; 0.1 μM doxorubicin only): 24%

COc1cc([C@@H]2c3cc4c(cc3[C@@H](O[C@@H]3O[C@@H]5CO[C@@H](C)O[C@H]5[C@H](O)[C@H]3O)[C@H]3COC(=O)[C@H]23)OCO4)cc(OC)c1O [etoposide]
effect on cell survival, single agent [5]: substantially impairs survival
